Among the test systems are HOP-62 NSCLC; K-562 leukemia; KM12 colon; MALME-3M melanoma; MCF7 breast; RXF 393 renal; SF-539 CNS; SW-620 colon; CCRF-CEM leukemia; SR leukemia.
What all share (assay): NCI anticancer screen, dose series, 48 h

These results are taken from PubChem BioAssay (NCI).

The structures appear in SMILES notation.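 Results reflect a 48-hour exposure of cells in 96-well plates to compound at five concentrations. At the TGI there is no net growth.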 Where a SMILES comes first, the peptide text is derived from it. The star is where a group is joined. Cbz = O=C(OCc1ccccc1)*; NHNH2 = NN*

`Clc1ccc(OCc2nnc(CCCCCCCCc3nnc(COc4ccc(Cl)cc4)n3Nc3ccccc3)n2Nc2ccccc2)cc1`: the TGI is over 100 µM in the test with HOP-62 NSCLC; over 100 µM with K-562 leukemia; 36.9 µM with KM12 colon; over 65.6 µM in the test with MALME-3M melanoma; over 100 µM in the test with MCF7 breast; 70.8 µM in the test with RXF 393 renal. The values for the TGI in the test with SF-539 CNS and with SW-620 colon were 40.1 µM and over 100 µM, respectively.

Consider `CCOC(=O)/C(C#N)=N\Nc1ccc(-n2c(C)nc3ccccc3c2=O)cc1`, for which the TGI with CCRF-CEM leukemia, with HOP-62 NSCLC, in the test with K-562 leukemia, with KM12 colon, in the test on MCF7 breast and in the test on SF-539 CNS was over 100 µM throughout. For the same compound, the TGI in the test with SR leukemia and in the test with SW-620 colon was over 100 µM throughout.

For the compound `O=C(N/N=C/c1ccco1)c1cc(I)cc(I)c1O`, the TGI in the test with CCRF-CEM leukemia is over 50 µM; in the test with K-562 leukemia, over 50 µM; in the test on MALME-3M melanoma it was over 50 µM; in the test on MCF7 breast, over 50 µM; in the test with RXF 393 renal it was over 50 µM; in the test with SF-539 CNS, 26 µM. Besides, the TGI with SW-620 colon is over 50 µM.

As for `CC1S/C(=N/c2nnc(-c3ccccc3)o2)NC1=O` (centres undefined), the TGI with CCRF-CEM leukemia, in the test on HOP-62 NSCLC, in the test on K-562 leukemia, in the test with KM12 colon, in the test with MALME-3M melanoma and with MCF7 breast was over 100 µM in each case. Further, the TGI in the test with RXF 393 renal, with SF-539 CNS and in the test on SW-620 colon was over 100 µM throughout.

As for `O=C1C(Cl)N(c2ccccc2[N+](=O)[O-])C1c1c[nH]c2ccccc12` (centres undefined), the TGI with CCRF-CEM leukemia, in the test on HOP-62 NSCLC, with K-562 leukemia, with KM12 colon, with MALME-3M melanoma and with RXF 393 renal was over 100 µM each time. The TGI with SF-539 CNS, with SR leukemia and in the test with SW-620 colon was over 100 µM in each case.

`O=C1C=CC(=O)c2c(O)c(NCCc3ccc(O)cc3)c(Cl)c(O)c21`: the TGI with CCRF-CEM leukemia, with HOP-62 NSCLC, with K-562 leukemia, in the test with KM12 colon, with MALME-3M melanoma and with MCF7 breast was over 10 µM each time. Further, the TGI with SF-539 CNS and with SW-620 colon was over 10 µM each time.

Take `O=C1C=C(c2ccccc2)O/C1=C/C(=O)c1ccc(Cl)cc1`: the TGI with CCRF-CEM leukemia was over 100 µM; with HOP-62 NSCLC, 85.3 µM; in the test with K-562 leukemia, 33.7 µM; in the test on KM12 colon, 36.7 µM; in the test with MALME-3M melanoma it was 36 µM; with MCF7 breast, 30.1 µM. Besides, the results for the TGI in the test on RXF 393 renal, with SF-539 CNS and with SW-620 colon were 34.7 µM, 43.4 µM and 27.1 µM, respectively.

For the compound `COC(=O)CC(NC(=O)OCc1ccccc1)C(=O)NC(CC(=O)OC)C(=O)NC(CC(=O)OC)C(=O)NC(CC(=O)OC)C(=O)NC(CC(=O)OC)C(=O)NC(CC(=O)OC)C(=O)NN` (centres undefined) (Cbz-D(OMe)D(OMe)D(OMe)D(OMe)D(OMe)D(OMe)-NHNH2; configuration not given here), the TGI in the test with CCRF-CEM leukemia, in the test on HOP-62 NSCLC, in the test on K-562 leukemia, with KM12 colon, with MCF7 breast and in the test with SF-539 CNS was over 100 µM in each case. The TGI in the test on SR leukemia and in the test with SW-620 colon was over 100 µM each time.

On to `O=C1NC2OC(CO)C(O)C(O1)C2O` (centres undefined), for which the TGI with CCRF-CEM leukemia, with HOP-62 NSCLC, in the test with K-562 leukemia, in the test on KM12 colon, in the test with MALME-3M melanoma and in the test on RXF 393 renal was over 100 µM in each case. In addition, the TGI in the test with SF-539 CNS, with SR leukemia and in the test with SW-620 colon was over 100 µM each time.

For the compound `CN(C)CCn1c(=O)c2ccc(NCCCN(C)CCCNc3ccc4c(=O)n(CCN(C)C)c(=O)n5c6ccc([N+](=O)[O-])cc6c(=O)c3c45)c3c(=O)c4cc([N+](=O)[O-])ccc4n(c1=O)c23`, the TGI with HOP-62 NSCLC is 0.842 µM; in the test on KM12 colon it was 0.27 µM; in the test on MALME-3M melanoma, 0.781 µM; with MCF7 breast, 0.608 µM; in the test on SF-539 CNS, 0.851 µM.

In the case of `COc1ccc2c(c1)CC1=C(O2)c2ccc(OC)cc2OC1`, the TGI is over 100 µM in the test on CCRF-CEM leukemia; over 100 µM with HOP-62 NSCLC; over 100 µM in the test on K-562 leukemia; over 100 µM with KM12 colon; 45.5 µM with MALME-3M melanoma; 85.1 µM with SF-539 CNS. Further, the TGI with SR leukemia was over 100 µM; in the test with SW-620 colon, 34.6 µM.

As to `COc1c(Br)cc(CC(N)=O)c(O)c1Br`, the TGI with CCRF-CEM leukemia, in the test with HOP-62 NSCLC, in the test on K-562 leukemia, in the test with KM12 colon, in the test on MALME-3M melanoma and in the test with RXF 393 renal was over 100 µM in each case. For the same compound, the TGI with SF-539 CNS, with SR leukemia and in the test on SW-620 colon was over 100 µM each time.

On to `Cc1cc2ncc3c(=O)n(NS(=O)(=O)c4ccc(N)cc4)ccc3n2n1`, for which the TGI in the test on CCRF-CEM leukemia, in the test with HOP-62 NSCLC, in the test with KM12 colon, in the test with MALME-3M melanoma, with MCF7 breast and in the test on SF-539 CNS was over 100 µM in each case. The TGI in the test with SW-620 colon was over 100 µM.

For the compound `COc1ccc(-c2c(C#N)c(N)nc3c2CCS(=O)(=O)c2ccccc2-3)cc1`, the TGI in the test with CCRF-CEM leukemia, with K-562 leukemia, in the test on KM12 colon, in the test on MALME-3M melanoma, in the test on SR leukemia and with SW-620 colon was over 100 µM in each case.

With `NC(N)=Nc1ncccc1[N+](=O)[O-]`, the TGI was over 100 µM in the test on CCRF-CEM leukemia; over 100 µM in the test with HOP-62 NSCLC; over 100 µM in the test with K-562 leukemia; over 100 µM with KM12 colon; over 88 µM in the test with MALME-3M melanoma; over 64.4 µM in the test with MCF7 breast. Further, the TGI in the test with RXF 393 renal, with SF-539 CNS and in the test with SW-620 colon was over 100 µM each time.
